Consider 60 compounds from the METLIN SMRT retention time set (Domingo-Almenara et al. 2019).

The data set is described as follows: gradient 5% acetonitrile 3 min, to 50% in 2 min, to 85% in 15 min, held 3 min, 100 µL/min. Particulars: column: Zorbax Extend-C18 2.1 x 50 mm; eluents: water / acetonitrile, 0.1% formic acid. The procedure, abridged: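 Data were gathered over 3 months by HPLC coupled to a quadrupole time-of-flight mass spectrometer, operated in positive and negative ionization mode. Mixtures of ~100 pure standards ran on a Zorbax Extend-C18 column (2.1 × 50 mm, 1.8 μm) at 100 μL/min, with water and acetonitrile each containing 0.1% formic acid and dead and dwell volumes of 40 μL and 900 μL. Retention time was read from adduct peaks picked by computer and checked manually.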
Regarding `CC(=O)N1CCc2[nH]c3ccc(C(=O)NCc4ccc(N5CCOCC5)cc4)cc3c2C1`, the RP-LC retention time turned out to be 635 s.

As for `C=CCc1cc(C)ccc1OCC(O)Cn1cnc2ccccc21` (stereo not given), the RP-LC retention time turned out to be 630 s.

The compound `O=C(CN1C(=O)NC2(CCCCC2)C1=O)NCc1ccccc1Cl` returned an RP-LC retention time of 746 s.

As to `O=C(CN1CCN(Cc2ccccc2)C1=O)NCc1cccc(F)c1`, the RP-LC retention time was 761 s.

On to `O=C(CC1CCCC1)NCc1cccnc1-c1ccc(F)cc1`, for which the RP-LC retention time turned out to be 674 s.

Turning to `Cc1ccc(Cn2ccn3nc(-c4ccccc4)c(CO)c3c2=O)cc1`, the RP-LC retention time worked out at 964 s.

Compound `O=C(Cc1cccc(C(F)(F)F)c1)Nc1cccn2cnnc12` came in with an RP-LC retention time of 744 s.

In turn, `COC[C@@H]1OCCN(S(=O)(=O)c2cccc(OC)c2)[C@H]1c1ccccc1` showed an RP-LC retention time of 927 s.

In the case of `CCCCc1cc(=O)oc2cc(C)cc(OC(C)C(=O)N3CCC4(O)CCCCC4C3)c12` (stereo not given), the RP-LC retention time came to 952 s.

`Cn1c(=O)c2c(nc3n(-c4ccc(F)cc4)c(-c4ccc(Cl)cc4)cn23)n(C)c1=O` showed an RP-LC retention time of 1010 s.

For the compound `O=S(=O)(Nc1cccc(-c2cn3ccccc3n2)c1)c1ccc(Br)cc1`, the RP-LC retention time came to 673 s.

`COc1ccccc1NC(=O)c1[nH]c2cc(C)sc2c1CN(C)C` registered an RP-LC retention time of 678 s.

Regarding `O=C(Cn1ccc2ccn(Cc3ccccc3)c2c1=O)NCc1cccs1`, the RP-LC retention time came out at 872 s.

With `O=C(Cn1nc(C(=O)N2CCOCC2)c2ccccc21)Nc1ccc(F)cc1F`, the RP-LC retention time came to 732 s.

With `CC(C)NC(=O)N1CCCC(CCc2nnc(-c3cnccn3)o2)C1` (stereo not given), the RP-LC retention time was 627 s.

In the case of `CCn1nc(CNC(=O)c2ccc(F)cc2)c2ccccc21`, the RP-LC retention time came to 839 s.

`COc1ccc(C(=O)N2CCC3(CC2)NC(=O)c2cc(F)ccc2N3C)cc1OC` returned an RP-LC retention time of 715 s.

In the case of `Cc1cccc(NC(=O)N2CCN(CC(=O)c3c(C)n(C)c4ccccc34)CC2)c1`, the RP-LC retention time is 693 s.

`COc1ccc(S(=O)(=O)N2CC(C(=O)NC3CCCC3)Oc3cc(C)ccc32)cc1` (stereo not given) yielded an RP-LC retention time of 1100 s.

In turn, `O=C(Cc1cccs1)Nc1cccc2ccc(-n3ccnc3)nc12` yielded an RP-LC retention time of 610 s.

As to `Cc1cc(N2CCN(S(=O)(=O)c3cc(F)ccc3C)CC2)nc(N2CCCC2)n1`, the RP-LC retention time came to 783 s.

`COc1ccc(CNC(=O)CCC2CCN(c3cc(NC4CC4)ncn3)CC2)cc1` had an RP-LC retention time of 645 s.

With `CC(C)NC(=O)c1cn2c(n1)CCCC2`, the RP-LC retention time amounted to 545 s.

`Cc1cccc(OCC(=O)c2ccc3c(c2)N(C(C)C(=O)N2CCOCC2)C(=O)CO3)c1C` (stereo not given) displayed an RP-LC retention time of 877 s.

In turn, `COCCNC(=O)C1CCCN(C(=O)c2[nH]c(C)cc2C)C1` (stereo not given) returned an RP-LC retention time of 644 s.

In turn, `COC(=O)c1c(NCC2CCCO2)c2cccc(Cl)c2[nH]c1=O` (stereo not given) had an RP-LC retention time of 703 s.

Take `CCOC(=O)C(CC)n1nc2nc(Nc3ccc(C)cc3)cc(C)n2c1=O` (stereo not given): the RP-LC retention time was 1230 s.

`COc1ccc2[nH]c(=O)c(CCC(=O)NCc3ccco3)cc2c1` showed an RP-LC retention time of 655 s.

`CCN(CC)C(=O)c1ccc2c(c1)CCCN2S(C)(=O)=O` showed an RP-LC retention time of 748 s.

The compound `Cc1cc(N2CCN(c3ccccn3)CC2)n2nc(C(F)(F)F)c(-c3ccc(Cl)cc3)c2n1` came in with an RP-LC retention time of 1010 s.

Consider `Cc1c(N2CCN(C(=O)C3CCCCC3)CC2)c(=O)n(C)c(=O)n1-c1ccccc1`, for which the RP-LC retention time amounted to 881 s.

For `C#CC(c1ccccc1)(c1ccccc1)n1ccnc1`, the RP-LC retention time is 739 s.

Compound `Clc1nc(Oc2ccccc2)nc(-c2cn(-c3ccccc3)c3ccccc23)n1` registered an RP-LC retention time of 732 s.

`CCOc1ccc(C(=O)N2CCC3(CC2)NC(=O)c2cc(F)ccc2N3C)cc1` registered an RP-LC retention time of 767 s.

For the compound `Cc1ccc(-c2nnc(-c3cccc(S(=O)(=O)NCc4ccco4)c3)o2)cc1`, the RP-LC retention time stood at 968 s.

As for `Cc1ccc(-c2cc(=O)n(CC(=O)Nc3nccs3)cn2)cc1`, the RP-LC retention time worked out at 691 s.

Compound `CCN1C(=O)C2(CCN(S(=O)(=O)c3cccc(C)c3)CC2)c2ccccc21` displayed an RP-LC retention time of 1070 s.

`N#C/C(=C\c1c[nH]c2ccccc12)C(N)=O` showed an RP-LC retention time of 713 s.

In the case of `Cc1ccn2cc(-c3ccc(NC(=O)CCCc4ccccc4)cc3)nc2n1`, the RP-LC retention time was 694 s.

The compound `COc1ccc2c(c1OC)C(=O)N1N=C(c3ccc(-c4ccccc4)cc3)CC21` (stereo not given) gave an RP-LC retention time of 927 s.

Turning to `Cn1c(C2CCN(S(=O)(=O)c3ccc(F)c(Cl)c3)CC2)cc(=O)n2nccc12`, the RP-LC retention time is 722 s.

`O=C(Cn1c(-c2cccs2)cc2cc(Cl)ccc21)N1CCN(c2ccccn2)CC1` displayed an RP-LC retention time of 809 s.

Take `O=C(c1ccc(F)cc1Cl)N1CCC2(CC1)NC(=O)N(CCOc1ccccc1)C2=O`: the RP-LC retention time was 764 s.

`CC1=CC(C)(C)N=C2SC(c3ccc(N)cc3)=NN12`: the RP-LC retention time came to 635 s.

Compound `COc1ccc(OC)c(CNC(=O)C2CCN(c3nnc(-c4ccccc4)o3)CC2)c1` came in with an RP-LC retention time of 797 s.

Take `Cc1ccc(NC(=O)N2CCC(n3cnc4c(C)cccc4c3=O)CC2)cc1C`: the RP-LC retention time is 872 s.

`CCc1cc(C(=O)Nc2ccc(C)cc2F)nc2ccnn12` returned an RP-LC retention time of 1140 s.

Compound `Cc1ccc(C2Cn3nnc(-c4nc(C5CCCCC5)no4)c3CO2)c(C)c1` (stereo not given) gave an RP-LC retention time of 1390 s.

On to `CCc1ccc(N2CC(c3noc(-c4ccccc4C)n3)CC2=O)cc1` (stereo not given), for which the RP-LC retention time is 1160 s.

In turn, `O=C(c1ccco1)N1CCN(S(=O)(=O)c2ccc(-c3cc(C(F)(F)F)on3)o2)CC1` yielded an RP-LC retention time of 951 s.

With `CC(C)N(CC#CCNS(=O)(=O)c1ccc(Cl)cc1)C(C)C`, the RP-LC retention time was 568 s.

The compound `O=C(Nc1ccc2c(c1)OCCO2)N1CCCC(Cn2c(C3CC3)nc3cccnc32)C1` (stereo not given) yielded an RP-LC retention time of 645 s.

For `CCCC(=O)N1CCCN(C2=NS(=O)(=O)C(c3ccc(Cl)cc3)=C2C)CC1`, the RP-LC retention time came out at 834 s.

As to `Cc1ccc(C)c(-c2coc(-c3ccc(NC(=O)CC(C)C)cc3)n2)c1`, the RP-LC retention time was 1260 s.

Consider `c1ccc(-c2cc3ccccc3[nH]2)cc1`, for which the RP-LC retention time came to 1090 s.

For `CC(C)c1noc(C2CCCCN2Cc2nc(-c3ccccn3)no2)n1` (stereo not given), the RP-LC retention time came out at 824 s.

For `CC(C)NC(=O)c1ccc(-c2nc3cc(NS(=O)(=O)c4ccc(F)c(F)c4)ccc3n2C)cc1`, the RP-LC retention time was 721 s.

`CSc1ccc(CNC(=O)C2CCCN(c3nccn4nc(-c5ccc(F)cc5)cc34)C2)cc1` (stereo not given) registered an RP-LC retention time of 951 s.

`COCCn1ncc(N2CCCC(CC(=O)O)C2)cc1=O` (stereo not given) yielded an RP-LC retention time of 613 s.

In turn, `CN(CC1CCOCC1)C(=O)Nc1ccc(Cl)cc1` registered an RP-LC retention time of 772 s.
